Measured values reported in PubChem BioAssay AID330 (DTP/NCI, 2004).
Values joined by “and” are separate entries in the source; they are usually repeats but may differ in a detail not shown here. Equal entries are not always repeated. Toxic doses and inconclusive results are not listed. The calls were made as follows: active = survival T/C of 150% or more; inactive = T/C below 125% in these data.

Test system: P388 leukemia ip, CD2F1 mice, survival T/C
Test: NCI In Vivo Anticancer Drug Screen. Data for tumor model P388 Leukemia (intraperitoneal) in CD2F1 (CDF1) mice
Conditions: endpoint: median survival time, higher = longer survival
How it was run: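 Mice carrying the transplanted tumor received test compound or vehicle. Survival was recorded in each group, and the value is the treated-group measurement divided by that of the vehicle-treated control group.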

[1] = dose: 60.0 mg/kg/injection, schedule: Q01DX005 (ip), vehicle: saline with Tween-80
[2] = dose: 120.0 mg/kg/injection, schedule: Q01DX005 (ip), vehicle: saline with Tween-80
[3] = dose: 240.0 mg/kg/injection, schedule: Q01DX005 (ip), vehicle: saline with Tween-80
[4] = dose: 200.0 mg/kg/injection, schedule: Q01DX005 (ip), vehicle: saline with Tween-80

Measured: T/C

COc1cccc2c1C(=O)c1c(O)c3c(c(O)c1C2=O)C(OC)C(O)(C(C)=O)CC3OC1CC(N)C(O)C(C)O1 (configuration not stated)
inactive: dose: 3.13 mg/kg/injection, schedule: Q04DX003 (ip), vehicle: water 100 % of control | dose: 6.25 mg/kg/injection, schedule: Q04DX003 (ip), vehicle: water 100 % of control | dose: 12.5 mg/kg/injection, schedule: Q04DX003 (ip), vehicle: water 108 % of control | dose: 25.0 mg/kg/injection, schedule: Q04DX003 (ip), vehicle: water 115 % of control | dose: 50.0 mg/kg/injection, schedule: Q04DX003 (ip), vehicle: water 115 % of control

CNCCOC(=O)/C=C1\CC[C@H]2[C@@H]([C@@H](O)C(=O)[C@@H]3[C@]2(C)CC[C@H](O)[C@]3(C)C(=O)OC)[C@H]1C
inactive: dose: 3.0 mg/kg/injection, schedule: Q01DX009 (ip), vehicle: saline 100 % of control | dose: 6.0 mg/kg/injection, schedule: Q01DX009 (ip), vehicle: saline 97 % of control | dose: 12.0 mg/kg/injection, schedule: Q01DX009 (ip), vehicle: saline 109 % of control | dose: 12.5 mg/kg/injection, schedule: Q01DX009 (ip), vehicle: saline 114 % of control

O=c1c2c([nH]c3ccccc13)CSC2
inactive: dose: 50.0 mg/kg/injection, schedule: Q01DX009 (ip), vehicle: saline with Tween-80 100 % of control | dose: 100.0 mg/kg/injection, schedule: Q01DX009 (ip), vehicle: saline with Tween-80 100 % of control | dose: 200.0 mg/kg/injection, schedule: Q01DX009 (ip), vehicle: saline with Tween-80 97 % of control | dose: 400.0 mg/kg/injection, schedule: Q01DX009 (ip), vehicle: saline with Tween-80 100 % of control

COc1ccc(C(=O)OC2(C)CC(C)(C)N=N2)cc1 (configuration not stated)
inactive: dose: 12.5 mg/kg/injection, schedule: Q01DX009 (ip), vehicle: other 105 % of control | dose: 25.0 mg/kg/injection, schedule: Q01DX009 (ip), vehicle: other 108 % of control | dose: 50.0 mg/kg/injection, schedule: Q01DX009 (ip), vehicle: other 108 % of control | dose: 100.0 mg/kg/injection, schedule: Q01DX009 (ip), vehicle: other 108 % of control | dose: 200.0 mg/kg/injection, schedule: Q01DX009 (ip), vehicle: other 108 % of control

O=c1oc2cc(O)ccc2cc1-c1nc2ccccc2o1
inactive: [1] 97 % of control | [2] 98 % of control | [3] 96 % of control

O=C1CS/C(=N/N=C/c2nc3ccccc3c(=O)n2-c2ccc(Cl)cc2)N1c1ccccc1
inactive: [4] 88 % of control

CCOCCOCCOc1cccc2cccnc12
inactive: dose: 50.0 mg/kg/injection, schedule: Q01DX005 (ip), vehicle: Klucel (hydroxypropylcellulose) (HPC) 103 % of control | dose: 100.0 mg/kg/injection, schedule: Q01DX005 (ip), vehicle: Klucel (hydroxypropylcellulose) (HPC) 107 % of control | dose: 200.0 mg/kg/injection, schedule: Q01DX005 (ip), vehicle: Klucel (hydroxypropylcellulose) (HPC) 107 % of control

O=C(CNC(=O)c1ccccc1)N/N=C/c1ccccc1O
inactive: [1] 100 % of control | [2] 101 % of control | [3] 100 % of control

CCOC(=O)N1c2ccccc2C(c2ccccc2)=NC1(C#N)CC (configuration not stated)
inactive: dose: 50.0 mg/kg/injection, schedule: Q01DX005 (ip), vehicle: saline with Tween-80 96 % of control | dose: 100.0 mg/kg/injection, schedule: Q01DX005 (ip), vehicle: saline with Tween-80 96 % of control | [4] 97 % of control

CCN(CC)c1ccc(NCS(=O)(=O)O)cc1
inactive: dose: 50.0 mg/kg/injection, schedule: Q04DX003 (ip), vehicle: saline sonified 95 % of control | dose: 100.0 mg/kg/injection, schedule: Q04DX003 (ip), vehicle: saline sonified 90 % of control | dose: 200.0 mg/kg/injection, schedule: Q04DX003 (ip), vehicle: saline sonified 100 % of control

Cc1cc[n+]2cc(-c3ccc(/C=N/N=C(N)N)cc3)n(C)c2c1
inactive: dose: 1.56 mg/kg/injection, schedule: Q01DX005 (ip), vehicle: Klucel (hydroxypropylcellulose) (HPC) 100 % of control | dose: 3.12 mg/kg/injection, schedule: Q01DX005 (ip), vehicle: Klucel (hydroxypropylcellulose) (HPC) 103 % of control | dose: 6.25 mg/kg/injection, schedule: Q01DX005 (ip), vehicle: Klucel (hydroxypropylcellulose) (HPC) 102 % of control and 107 % of control
